PubChem BioAssay AID248 (DTP/NCI, 2004)
Several values for one entry are separate records, joined by “and”; a condition that tells them apart may be missing. Equal values may be shown once. Inconclusive results and toxic doses are left out. Rule as the data show it: active = T/C of 150% or more; inactive = T/C below 125%.

Test system: L1210 leukemia ip in BDF1 mice, survival T/C
Assay: NCI In Vivo Anticancer Drug Screen. Data for tumor model L1210 Leukemia (intraperitoneal) in B6D2F1 (BDF1) mice
Conditions: endpoint: mean survival time, higher = longer survival
Method in brief: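 In this screen, tumor-bearing mice given compound are compared to those given vehicle, and their survival values are reported as a treated-to-control quotient.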

[1] = dose: 100.0 mg/kg/injection, schedule: Q04DX003 (ip), vehicle: saline with Tween-80
[2] = dose: 100.0 mg/kg/injection, schedule: Q01DX001 (ip), vehicle: carboxymethylcellulose (CMC)
[3] = dose: 200.0 mg/kg/injection, schedule: Q01DX001 (ip), vehicle: carboxymethylcellulose (CMC)
[4] = dose: 100.0 mg/kg/injection, schedule: Q01DX001 (ip), vehicle: acetone
[5] = dose: 100.0 mg/kg/injection, schedule: Q01DX009 (ip), vehicle: saline
[6] = dose: 200.0 mg/kg/injection, schedule: Q01DX001 (ip), vehicle: acetone
[7] = dose: 200.0 mg/kg/injection, schedule: Q01DX009 (ip), vehicle: saline
[8] = dose: 400.0 mg/kg/injection, schedule: Q01DX001 (ip), vehicle: acetone
[9] = dose: 400.0 mg/kg/injection, schedule: Q01DX009 (ip), vehicle: saline
[10] = dose: 9.5 mg/kg/injection, schedule: Q01DX001 (ip), vehicle: other
[11] = dose: 19.0 mg/kg/injection, schedule: Q01DX001 (ip), vehicle: other
[12] = dose: 100.0 mg/kg/injection, schedule: Q01DX009 (ip), vehicle: saline with Tween-80
[13] = dose: 200.0 mg/kg/injection, schedule: Q01DX009 (ip), vehicle: saline with Tween-80
[14] = dose: 400.0 mg/kg/injection, schedule: Q01DX009 (ip), vehicle: saline with Tween-80
[15] = dose: 100.0 mg/kg/injection, schedule: Q04DX002 (ip), vehicle: saline
[16] = dose: 400.0 mg/kg/injection, schedule: Q04DX002 (ip), vehicle: saline
[17] = dose: 100.0 mg/kg/injection, schedule: Q01DX001 (ip), vehicle: saline

Measured: T/C

CC(=O)OCC(I)CC(F)(F)C(F)(F)C(F)(F)F (stereo not drawn)
inactive: dose: 100.0 mg/kg/injection, schedule: Q01DX001 (ip), vehicle: saline with Tween-80 98 % of control | dose: 200.0 mg/kg/injection, schedule: Q01DX001 (ip), vehicle: saline with Tween-80 103 % of control | dose: 400.0 mg/kg/injection, schedule: Q01DX001 (ip), vehicle: saline with Tween-80 116 % of control

CC1(C)N=C(N)N=C(N)N1c1ccc(OCCNS(=O)(=O)c2ccc(S(=O)(=O)F)cc2)c(Cl)c1
inactive: [1] 105 % of control

CCCCCCCCCCC(C1CCCC2CCCCC21)C1CCCC2CCCCC21 (stereo not drawn)
inactive: [2] 100 % of control | [3] 102 % of control | dose: 400.0 mg/kg/injection, schedule: Q01DX001 (ip), vehicle: carboxymethylcellulose (CMC) 94 % of control

Cc1ncc(CO)c(/C=N/N=C(N)N)c1O
inactive: dose: 30.0 mg/kg/injection, schedule: Q01DX Z (oral), vehicle: methylcellulose (MC) 92 % of control | dose: 120.0 mg/kg/injection, schedule: Q01DX Z (oral), vehicle: methylcellulose (MC) 94 % of control | dose: 240.0 mg/kg/injection, schedule: Q01DX Z (oral), vehicle: methylcellulose (MC) 103 % of control

O=S(=O)(C/C=C/CC(Cl)(Cl)Cl)C/C=C/CC(Cl)(Cl)Cl
inactive: [4] 95 % of control | [5] 90 % of control | dose: 100.0 mg/kg/injection, schedule: Q04DX003 (ip), vehicle: acetone 97 % of control | [6] 94 % of control | [7] 93 % of control | dose: 200.0 mg/kg/injection, schedule: Q04DX003 (ip), vehicle: acetone 95 % of control | [8] 89 % of control | [9] 92 % of control | dose: 400.0 mg/kg/injection, schedule: Q04DX003 (ip), vehicle: acetone 95 % of control

NC(N)=Nc1ncnc2nncnc12
inactive: [10] 102 % of control | [11] 102 % of control | dose: 38.0 mg/kg/injection, schedule: Q01DX001 (ip), vehicle: other 102 % of control

CCOC(=O)C(CCCCC(NC(C)=O)(C(=O)OCC)C(=O)OCC)(NC(C)=O)C(=O)OCC
inactive: [12] 92 % of control | [13] 94 % of control | [14] 92 % of control

O=C1NC(=O)/C(=C\c2ccc3c(c2)OCO3)S1
inactive: dose: 2.5 mg/kg/injection, schedule: Q01DX009 (ip), vehicle: saline with Tween-80 96 % of control | dose: 5.0 mg/kg/injection, schedule: Q01DX009 (ip), vehicle: saline with Tween-80 91 % of control | dose: 10.0 mg/kg/injection, schedule: Q01DX009 (ip), vehicle: saline with Tween-80 89 % of control

C=CCSC1=NC(=O)C(CCCC)C(=O)N1C (stereo not drawn)
inactive: dose: 75.0 mg/kg/injection, schedule: Q01DX001 (ip), vehicle: saline 88 % of control

C/C=C/C=C\COC(=O)C1CCCC1
inactive: [15] 103 % of control and 107 % of control | dose: 200.0 mg/kg/injection, schedule: Q04DX002 (ip), vehicle: saline 96 % of control and 98 % of control | [16] 107 % of control | dose: 600.0 mg/kg/injection, schedule: Q04DX002 (ip), vehicle: saline 107 % of control

N#CCCNC(=O)c1ccccc1
inactive: [4] 107 % of control | dose: 100.0 mg/kg/injection, schedule: Q01DX009 (ip), vehicle: acetone 90 % of control | dose: 100.0 mg/kg/injection, schedule: Q04DX003 (ip), vehicle: saline 103 % of control | [6] 102 % of control | dose: 200.0 mg/kg/injection, schedule: Q01DX009 (ip), vehicle: acetone 92 % of control | dose: 200.0 mg/kg/injection, schedule: Q04DX003 (ip), vehicle: saline 94 % of control | [8] 102 % of control | dose: 400.0 mg/kg/injection, schedule: Q01DX009 (ip), vehicle: acetone 90 % of control | dose: 400.0 mg/kg/injection, schedule: Q04DX003 (ip), vehicle: saline 101 % of control

Cc1cnc(-n2nc(-c3ccccc3)c3c2-c2ccccc2C3)nc1-c1ccccc1O
inactive: dose: 6.25 mg/kg/injection, schedule: Q01DX009 (ip), vehicle: Klucel (hydroxypropylcellulose) (HPC) 91 % of control | dose: 12.5 mg/kg/injection, schedule: Q01DX009 (ip), vehicle: Klucel (hydroxypropylcellulose) (HPC) 87 % of control

COc1ccc(-c2nc3cc(Cl)ccc3c(=O)o2)cc1
inactive: [12] 94 % of control | [13] 94 % of control | [14] 90 % of control

N#CCCN1CCC(=O)c2ccccc21
inactive: [17] 101 % of control | dose: 200.0 mg/kg/injection, schedule: Q01DX001 (ip), vehicle: saline 98 % of control | dose: 400.0 mg/kg/injection, schedule: Q01DX001 (ip), vehicle: saline 101 % of control

BrCc1ccc(Br)cc1
inactive: [2] 96 % of control | [3] 91 % of control

NC(=O)c1cn[nH]c1/N=N/N(CCF)CCF
inactive: [10] 111 % of control | dose: 10.0 mg/kg/injection, schedule: Q01DX009 (ip), vehicle: other 119 % of control | [11] 124 % of control

FC(F)(F)c1cccc(P(c2cccc(C(F)(F)F)c2)c2ccccc2C(F)(F)F)c1
inactive: [1] 95 % of control | dose: 400.0 mg/kg/injection, schedule: Q04DX003 (ip), vehicle: saline with Tween-80 87 % of control

CSC1C(OC(=O)c2ccccc2)C(COC(=O)c2ccccc2)OC1n1cnc2ncnc(NC(=O)c3ccccc3)c21 (stereo not drawn)
inactive: dose: 100.0 mg/kg/injection, schedule: Q01DX005 (ip), vehicle: saline 100 % of control | dose: 200.0 mg/kg/injection, schedule: Q01DX005 (ip), vehicle: saline 92 % of control

[N-]=[N+]=Nc1ccc(C(=O)NCc2cnc(N)nc2N)cc1
inactive: dose: 100.0 mg/kg/injection, schedule: Q04DX002 (ip), vehicle: saline with Tween-80 98 % of control

Cn1cccc1/C=C/[N+](=O)[O-]
inactive: dose: 50.0 mg/kg/injection, schedule: Q01DX001 (ip), vehicle: saline 104 % of control | [17] 91 % of control

CNC1(C(N)=O)CCN(Cc2ccccc2)CC1
inactive: dose: 50.0 mg/kg/injection, schedule: Q01DX009 (ip), vehicle: saline with Tween-80 99 % of control | [12] 94 % of control | [1] 95 % of control | [13] 90 % of control | dose: 200.0 mg/kg/injection, schedule: Q04DX003 (ip), vehicle: saline with Tween-80 101 % of control

COc1ccc(OC(C)=O)c(C=O)c1
inactive: [2] 100 % of control | [3] 103 % of control

O=C(O)c1cc(N=Nc2ccccc2C(=O)O)ccc1O
inactive: dose: 100.0 mg/kg/injection, schedule: Q04DX003 (ip), vehicle: Klucel (hydroxypropylcellulose) (HPC) 92 % of control | dose: 200.0 mg/kg/injection, schedule: Q04DX003 (ip), vehicle: Klucel (hydroxypropylcellulose) (HPC) 94 % of control | dose: 400.0 mg/kg/injection, schedule: Q04DX003 (ip), vehicle: Klucel (hydroxypropylcellulose) (HPC) 112 % of control

CCCCCCCCNP(=S)(NCCCCCCCC)NCCCCCCCC
inactive: dose: 50.0 mg/kg/injection, schedule: Q01DX001 (ip), vehicle: other 105 % of control | dose: 100.0 mg/kg/injection, schedule: Q01DX001 (ip), vehicle: other 96 % of control | dose: 200.0 mg/kg/injection, schedule: Q01DX001 (ip), vehicle: other 96 % of control | dose: 400.0 mg/kg/injection, schedule: Q01DX001 (ip), vehicle: other 94 % of control

CC1(O)CCC2C3CCC4CC(=O)CCC4(C)C3(F)C(O)CC21C (stereo not drawn)
inactive: [5] 96 % of control | [7] 102 % of control | [9] 96 % of control

Brc1ccc2oc3ccccc3c2c1
inactive: dose: 50.0 mg/kg/injection, schedule: Q04DX002 (ip), vehicle: Klucel (hydroxypropylcellulose) (HPC) 92 % of control | dose: 100.0 mg/kg/injection, schedule: Q04DX002 (ip), vehicle: Klucel (hydroxypropylcellulose) (HPC) 93 % of control | [15] 104 % of control | dose: 200.0 mg/kg/injection, schedule: Q04DX002 (ip), vehicle: Klucel (hydroxypropylcellulose) (HPC) 96 % of control | dose: 400.0 mg/kg/injection, schedule: Q04DX002 (ip), vehicle: Klucel (hydroxypropylcellulose) (HPC) 100 % of control | [16] 93 % of control

CCOC(=O)NCC1(c2ccccc2)CCNCC1
inactive: dose: 20.0 mg/kg/injection, schedule: Q04DX003 (ip), vehicle: Klucel (hydroxypropylcellulose) (HPC) 102 % of control | dose: 40.0 mg/kg/injection, schedule: Q04DX003 (ip), vehicle: Klucel (hydroxypropylcellulose) (HPC) 102 % of control | dose: 80.0 mg/kg/injection, schedule: Q04DX003 (ip), vehicle: Klucel (hydroxypropylcellulose) (HPC) 102 % of control
